A short description of data set [1]: Inhibition of Staphylococcus aureus TarO.
Data set [2] in a line: Inhibition of Staphylococcus aureus TarO assessed as suppression of bacteriophageK-mediated cell lysis.
Data set [3] concerns Staphylococcus aureus subsp. aureus COL. In words: Inhibition of methicillin-resistant Staphylococcus aureus COL TarO assessed as concentration of compound for potentiation of action of imipenem-mediated bacterial growth inhibition by 95 %.
Data set [4] is described as follows: Inhibition of Staphylococcus aureus TarO assessed as reversal of targocil-mediated bacterial growth inhibition.
The test system of data set [5] is Staphylococcus aureus. As to the kind of experiment: Inhibition of methicillin-resistant Staphylococcus aureus TarO assessed as potentiation of action of imipenem-mediated bacterial growth inhibition by measuring percentage of compound MITC95<=25 uM for 25 isolates. Set-up: scale not given: the % may be the effect or the level left.
In data set [6] the test system is Staphylococcus aureus. In words: Antibacterial activity against methicillin-resistant Staphylococcus aureus COL. The class given is functional.
A short description of data set [7]: AUC (0 to 24 hrs) in rat at 2 mg/kg, po. The class given is ADME, organism-based. Set-up: dose 2 mg/kg, time < 24 hr, route oral. Conditions: in vivo.
The subject of data set [8] is Staphylococcus epidermidis. As to the kind of experiment: Inhibition of methicillin-resistant Staphylococcus epidermidis TarO assessed as potentiation of action of imipenem-mediated bacterial growth inhibition by measuring percentage of compound MITC95<=25 uM for 25 isolates. Details: scale not given: the % may be the effect or the level left.
The nature of data set [9]: Oral bioavailability in rat at 2 mg/kg. The following applies: in vivo. It is filed as ADME, organism-based.
Data set [10] can be described thus: Half life in rat at 2 mg/kg, po. It is filed as ADME, organism-based. Conditions: in vivo.

The structures appear in SMILES notation.

For the compound `CCN(C(=O)CCn1c2cc(CO)ccc2nc1[C@H]1CC[C@H](CC)CC1)C1CCCCC1`, half-maximal inhibition in [1] (IC50) was put at 100 nM. In addition, the EC50 (commonly the concentration giving half of the maximal effect) in data set [2] is 5.4 µM; in data set [4], 7.1 µM. Besides, the MITC95 in data set [3] is 0.5 µM. Further, the Activity in the data set on Staphylococcus aureus [5] was 68%.

In the case of `CCN(C(=O)CCn1c2cc(C(=O)NC3CC3)ccc2nc1[C@H]1CC[C@H](CC)CC1)C1CCCCC1`, the IC50 (as a rule, the concentration needed to halve the response being measured) in data set [1] is 200000 nM. The EC50 in data set [2] was 108 µM; in [4], 90 µM. The MITC95 in data set [3] worked out at 50 µM.

On to `CCN(C(=O)CCn1c2ccc(F)cc2nc1[C@H]1CC[C@H](CC)CC1)C1CCCCC1`, for which the IC50 in [1] was 40 nM. Besides, the EC50 in [2] worked out at 0.04 µM; in data set [4], 0.03 µM. For the same compound, the Activity is above 200 µM in the data set on Staphylococcus aureus [6], 54% in data set [8] and 76% in the data set on Staphylococcus aureus [5]. In data set [7], the AUC – broadly, the area under the concentration-time curve, a measure of exposure – was 0.9 µM·h. In [3], the MITC95 was 0.004 µM. In addition, the bioavailability (commonly dose-corrected exposure relative to a reference, in per cent) in data set [9] worked out at 15%. In addition, the half-life (usually the time needed for the level to fall by half in the phase considered) in data set [10] is 300 min.

Regarding `CCN(C(=O)CCn1c2c(F)cccc2nc1[C@H]1CC[C@H](CC)CC1)C1CCCCC1`, the IC50 in data set [1] turned out to be 40 nM. In addition, the EC50 amounted to 0.9 µM in data set [2] and 0.4 µM in data set [4]. Also, the values for the Activity (in data set [8]; in the data set with Staphylococcus aureus [5]) were 75% and 68%, respectively. Also, the MITC95 in data set [3] is 0.8 µM.

The compound `CCN(C(=O)CCn1c(-c2ccc(-n3ccnn3)cc2)nc2ccccc21)C1CCCCC1` showed an IC50 in [1] of 3800 nM. Also, the EC50 in data set [2] and in data set [4] was above 200 µM throughout. In data set [3], the MITC95 was determined as 19 µM.

`CCN(C(=O)CCn1c2cc(C(=O)O)ccc2nc1[C@H]1CC[C@H](CC)CC1)C1CCCCC1` registered an IC50 in data set [1] of 147000 nM. The EC50 in data set [2] and in [4] was above 200 µM each time. Besides, in data set [3], the MITC95 is 200 µM.

On to `CCN(C(=O)CCn1c(-c2ccc(C(=O)OC)cc2)nc2ccccc21)C1CCCCC1`, for which the IC50 in data set [1] worked out at 100 nM. Moreover, the values for the EC50 in [2] and in [4] were 6.9 µM and 4.3 µM, respectively. Besides, the MITC95 in [3] is 1.2 µM. The Activity in the data set on Staphylococcus aureus [5] was found to be 64%.

Take `CCN(C(=O)CCn1c2cc(-c3cn[nH]c3)ccc2nc1[C@H]1CC[C@H](CC)CC1)C1CCCCC1`: the concentration for half-maximal inhibition (IC50) in data set [1] was found to be 200000 nM. The EC50 came to 100 µM in [2] and 24 µM in data set [4]. Also, the MITC95 in data set [3] is 6.3 µM.

As for `CCN(C(=O)CCn1c(C2CCCNC2)nc2cc(F)ccc21)C1CCCCC1` (stereo not given), the IC50 in [1] is 16500 nM. For the same compound, the EC50 in [2] and in data set [4] was above 200 µM each time. Also, the MITC95 in [3] was determined as 200 µM.

In data set [1], `CCN(C(=O)CCn1c2cc(-c3ccc(CO)cc3)ccc2nc1[C@H]1CC[C@H](CC)CC1)C1CCCCC1` yielded an IC50 of 300 nM. Also, the concentration for a half-maximal effect (EC50) in data set [2] and in data set [4] was above 200 µM throughout. In addition, in data set [3], the MITC95 was determined as 4.7 µM.

Regarding `CCN(C(=O)CCn1c2cc(-c3ccccc3)ccc2nc1[C@H]1CC[C@H](CC)CC1)C1CCCCC1`, in [1], the midpoint of inhibition, the IC50, lay at 4 nM. Further, the EC50 in data set [2] turned out to be 0.2 µM; in data set [4], 0.03 µM. Besides, the results for the Activity (in data set [8]; with Staphylococcus aureus [5]) were 12% and 72%, respectively. The MITC95 in [3] worked out at 0.2 µM.

`CCN(C(=O)CCn1c2cc(F)ccc2nc1[C@H]1CC[C@H](CC)CC1)C1CCCCC1` returned a half-maximal inhibitory concentration (IC50) in data set [1] of 20 nM. The EC50 in data set [2] was 0.8 µM; in [4], 0.7 µM. The Activity in data set [8] came out at 42%; in the data set on Staphylococcus aureus [5], 68%. Besides, the MITC95 in data set [3] worked out at 0.1 µM.

As for `CCN(C(=O)CCn1c2cc(CN(C)C)ccc2nc1[C@H]1CC[C@H](CC)CC1)C1CCCCC1`, the IC50 in data set [1] is 200000 nM. The concentration for a half-maximal effect (EC50) in data set [2] and in data set [4] was above 200 µM each time. In data set [3], the MITC95 was 25 µM.

For `CCN(C(=O)CCn1c(C2CCCN(C(C)=O)C2)nc2cc(F)ccc21)C1CCCCC1` (stereo not given), half-maximal inhibition in data set [1] (IC50) required 48000 nM. The EC50 in data set [2] and in data set [4] was above 200 µM in each case. Besides, the MITC95 in data set [3] came to 100 µM.

In [1], `CCN(C(=O)CCn1c2ccc(Br)cc2nc1[C@H]1CC[C@H](CC)CC1)C1CCCCC1` registered an IC50 below 400 nM. The compound also displayed an Activity with Staphylococcus aureus [6] above 200 µM.

In the case of `CCNC(=O)N1CCCC(c2nc3cc(F)ccc3n2CCC(=O)N(CC)C2CCCCC2)C1` (stereo not given), 28000 nM corresponded to half-maximal inhibition in data set [1] (IC50). Besides, the EC50 in data set [2] and in data set [4] was above 200 µM throughout. The MITC95 in data set [3] amounted to 100 µM.

In data set [1], `CCOC(=O)N1CCCC(c2nc3cc(F)ccc3n2CCC(=O)N(CC)C2CCCCC2)C1` (stereo not given) displayed an IC50 of 100 nM. Also, the EC50 in data set [2] and in data set [4] was 3.3 µM throughout. In addition, in [3], the MITC95 came out at 0.4 µM. For the same compound, in the data set on Staphylococcus aureus [5], the Activity was 68%.

`CC1(C)[C@@H]2CC[C@@]1(C)[C@@H](NC(=O)CCn1c(C3CCCCC3)nc3ccccc31)C2` returned an IC50 in data set [1] of 400 nM. Besides, the EC50 in data set [2] worked out at 3 µM; in [4] it was 6 µM. Further, in the data set on Staphylococcus aureus [6], the Activity is above 200 µM. Besides, in data set [3], the MITC95 came to 3 µM.

In turn, `CCN(C(=O)CCn1c2cccc(F)c2nc1[C@H]1CC[C@H](CC)CC1)C1CCCCC1` came in with an IC50 in [1] of 30 nM. For the same compound, the figures for the EC50 in [2] and in data set [4] were 0.8 µM and 0.4 µM, respectively. Also, the figures for the Activity (in data set [8]; in the data set with Staphylococcus aureus [5]) were 58% and 68%, respectively. Further, in data set [3], the MITC95 was determined as 0.1 µM.

Consider `CCN(C(=O)CCn1c2cc(-c3cnn(C)c3)ccc2nc1[C@H]1CC[C@H](CC)CC1)C1CCCCC1`, for which the midpoint of inhibition in data set [1], the IC50, lay at 50 nM. The EC50 in data set [2] was 0.7 µM; in data set [4] it was 0.6 µM. Also, the Activity in data set [8] was determined as 67%; with Staphylococcus aureus [5], 80%. Moreover, the MITC95 in data set [3] stood at 0.2 µM.

For `CCN(C(=O)CCn1c(-c2ccc(OCC(F)(F)F)cc2)nc2ccccc21)C1CCCCC1`, half-maximal inhibition in data set [1] (IC50) was put at 40 nM. For the same compound, the EC50 in data set [2] amounted to 1.2 µM; in data set [4], 1.1 µM. For the same compound, the Activity was 4% in data set [8] and 68% in the data set with Staphylococcus aureus [5]. For the same compound, the MITC95 in data set [3] was determined as 0.3 µM.

Compound `CCN(C(=O)CCn1c2cc(-c3ccc(O)cc3)ccc2nc1[C@H]1CC[C@H](CC)CC1)C1CCCCC1` registered an IC50 in data set [1] of 100 nM. For the same compound, the EC50 came to 29 µM in [2] and 1.8 µM in data set [4]. Besides, in data set [3], the MITC95 stood at 0.3 µM. The Activity in the data set on Staphylococcus aureus [5] was 56%.

The compound `CCN(C(=O)CCn1c(C2CCCN(C(=O)OC(C)(C)C)C2)nc2cc(F)ccc21)C1CCCCC1` (stereo not given) returned an IC50 in [1] of 60 nM. In addition, the EC50 in [2] was 1.7 µM; in [4], 1.5 µM. Moreover, the Activity was determined as 4% in data set [8] and 64% in the data set on Staphylococcus aureus [5]. The MITC95 in data set [3] came out at 0.5 µM.

Values taken from ChEMBL document CHEMBL4428085, “Benzimidazole analogs as WTA biosynthesis inhibitors targeting methicillin resistant Staphylococcus aureus” (Bioorg Med Chem Lett, 2016).
